According to US20080102121A1 (Elan Pharma International Limited, priority 1998, published 2008):
Counter-ions that a name gives are not always drawn.

What was measured:
[1] = in vivo; cited from earlier work
[2] = cited from earlier work
[3] = 10 mg oral dose, five adult males; cited from earlier work
[4] = in vivo; cited from earlier work; remark: listed apart in the source
[5] = Hydrocodone simulations (one-compartment model); details: estimated from non-compartmental parameters
Method: Studies of hydrocodone formulations of the present invention were conducted to simulate the profiles associated with twice-daily administration hydrocodone for both single dose and steady state. […] Non-compartmental parameters were used to find estimates of the unit input response and a one-compartment model was assumed for all simulations.
For the absorption rate constant k01, several profiles were simulated using different estimates of k01.
Options 1 and 2 assumed a first order release and option 3 a zero-order release.

CC(=O)Nc1ccc(O)cc1 [acetaminophen]
doses reported as fatal [1]: 15,000-20,0000 milligrams a day

4-hydroxy-2-methyl-N-(5-methyl-2-thiazolyl)-2-H-1,2-benzothiazine-3-carboxamide 1,1-dioxide [Meloxicam]
time of second meloxicam concentration peak ([2]; fasted steady state conditions, post-dose): twelve to fourteen | bioavailability ([2]; single 30 mg oral dose compared to 30 mg intravenous bolus injection): 89%

COc1ccc2c3c1OC1C(=O)CCC4C(C2)N(C)CC[C@]314 (stereo partly drawn) [Hydrocodone, 4,5a-Epoxy-3-methoxy-1 7-methylmorphinan-6-one tartrate (1:1) hydrate (2:5)]
Cmax [3]: 23.6 ± 5.2 ng/mL | Thalf [3]: 3.8 ± 0.3 h | Tmax [3]: 1.3 ± 0.3 h | half life [4]: 4 to 8 h | K10 [5]: 0.18 | V/f [5]: 334.29 L
